These are literature values, as cited in US20230372421A1, “IMMATURE POMEGRANATE EXTRACT FORMULATIONS” (CONSIGLIO NAZIONALE DELLE RICERCHE, priority 2020, published 2023).

The data set concerns cells of neuronal origin. As to conditions: Jin, Yu, Wang & Xu, 2016.

Structures are written as SMILES.

For `O=C1O[C@H]2[C@H](OC(=O)c3cc(O)c(O)c(O)c3)O[C@@H]3COC(=O)c4cc(O)c(O)c(O)c4-c4c(cc(O)c(O)c4O)C(=O)O[C@H]2[C@@H]3OC(=O)c2cc(O)c(O)c3c2C2C1=CC(=O)C(O)(O)C2(O)O3` (stereo partly shown) [granatin B], the anticancer properties result is recorded as “important anticancer properties”.
